Here are results for nine compounds from patent US10017509B2, “Macrocylic pyrimidine derivatives” (Janssen Pharmaceutica NV, priority 2014, dated 2018).

Bounds are passed on as bounds.

Assay [1] concerns the target Vps34 (PIK3C3 lipid kinase) (Homo sapiens, UniProt Q8NEB9). The assay is described as follows: Biochemical Vps34 lipid kinase assay (ADP-Glo). The note with it: for remaining activity at 1 µM: 1 h, single dose 1 μM compound, residual activity compared to control (DMSO), read-out: VPS34_1microM_% of cntrl; for IC50: serial half-log dilution 10 μM to 0.3 nM, pIC50 = -log IC50 (M). The essentials: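 ADP-Glo luminescence assay of PIK3C3 (7.6 nM) with 50 µM substrate and 20 µM ATP (apparent Km) in HEPES pH 7.5, 100 mM NaCl, 3 mM MnCl2, CHAPS, DTT; 60 min, 30 °C. Single dose 1 µM (residual activity vs DMSO) or half-log series 10 µM-0.3 nM giving pIC50.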
Background: ADP-Glo first removes unused ATP, then detects ADP through luciferase.

Assay [2] addresses T1, EF2K (Homo sapiens, UniProt O00418).
T1 construct: host or cells: LN-229 cell lysate
T1 sequence (O00418 1-725): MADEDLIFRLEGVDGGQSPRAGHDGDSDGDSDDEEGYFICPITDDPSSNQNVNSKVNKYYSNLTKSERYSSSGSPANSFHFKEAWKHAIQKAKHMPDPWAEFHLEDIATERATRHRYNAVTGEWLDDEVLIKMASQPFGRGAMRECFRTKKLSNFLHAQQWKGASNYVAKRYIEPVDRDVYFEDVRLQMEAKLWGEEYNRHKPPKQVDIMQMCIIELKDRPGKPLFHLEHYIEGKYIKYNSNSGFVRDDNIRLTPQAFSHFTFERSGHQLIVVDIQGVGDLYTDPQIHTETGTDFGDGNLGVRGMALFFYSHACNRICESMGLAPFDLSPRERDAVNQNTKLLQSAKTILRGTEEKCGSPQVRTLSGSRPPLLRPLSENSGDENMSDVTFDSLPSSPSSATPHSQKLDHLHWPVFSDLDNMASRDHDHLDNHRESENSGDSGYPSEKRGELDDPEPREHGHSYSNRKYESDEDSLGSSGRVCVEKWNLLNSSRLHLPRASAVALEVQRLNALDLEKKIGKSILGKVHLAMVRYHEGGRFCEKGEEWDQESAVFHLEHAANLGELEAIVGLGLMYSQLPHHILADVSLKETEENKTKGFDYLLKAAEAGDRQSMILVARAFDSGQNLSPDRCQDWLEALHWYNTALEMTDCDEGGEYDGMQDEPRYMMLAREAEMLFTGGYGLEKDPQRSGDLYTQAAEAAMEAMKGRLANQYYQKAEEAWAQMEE
The assay is described as follows: Biochemical EF2K lysate-based kinase assay (AlphaLISA p-eEF2 Thr56). The conditions noted are these: pIC50 = -log IC50 (M), read-out: eEF2K_C_alphalisa pIC50 (converted). The essentials: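 LN-229 glioblastoma lysate supplied both EF2K and eEF2 substrate; compound incubated 15 min at room temperature in pH 6.6 buffer with 10 mM Mg2+ and 10 mM ATP. EDTA-stopped; phospho-eEF2 Thr56 quantified by AlphaLISA sandwich, final read after overnight. Values as pIC50.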
(In general: Bead proximity is the source of the signal in Alpha formats.)

The target of assay [3] is T1, EF2K. The assay is described as follows: EF2K cell-based assay (P-EF2 AlphaLISA, 2-deoxyglucose stimulated MCF10A cells). The conditions noted are these: 2.5 mM 2-deoxyglucose stimulated, P-EF2 Thr56, pIC50 = -log IC50 (M), read-out: eEF2K_C_PThr56 pIC50 (converted). Summed up: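 MCF10A cells, after 24 h culture, treated 1 h with compound then stimulated 4 h with 2.5 mM 2-deoxyglucose to activate AMPK. Lysates in M-PER with protease/phosphatase inhibitors assayed for P-EF2 by AlphaLISA; pIC50 = −log IC50 (M).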

Vps34 (PIK3C3 lipid kinase), sequence (Q8NEB9 whole entry, species assumed): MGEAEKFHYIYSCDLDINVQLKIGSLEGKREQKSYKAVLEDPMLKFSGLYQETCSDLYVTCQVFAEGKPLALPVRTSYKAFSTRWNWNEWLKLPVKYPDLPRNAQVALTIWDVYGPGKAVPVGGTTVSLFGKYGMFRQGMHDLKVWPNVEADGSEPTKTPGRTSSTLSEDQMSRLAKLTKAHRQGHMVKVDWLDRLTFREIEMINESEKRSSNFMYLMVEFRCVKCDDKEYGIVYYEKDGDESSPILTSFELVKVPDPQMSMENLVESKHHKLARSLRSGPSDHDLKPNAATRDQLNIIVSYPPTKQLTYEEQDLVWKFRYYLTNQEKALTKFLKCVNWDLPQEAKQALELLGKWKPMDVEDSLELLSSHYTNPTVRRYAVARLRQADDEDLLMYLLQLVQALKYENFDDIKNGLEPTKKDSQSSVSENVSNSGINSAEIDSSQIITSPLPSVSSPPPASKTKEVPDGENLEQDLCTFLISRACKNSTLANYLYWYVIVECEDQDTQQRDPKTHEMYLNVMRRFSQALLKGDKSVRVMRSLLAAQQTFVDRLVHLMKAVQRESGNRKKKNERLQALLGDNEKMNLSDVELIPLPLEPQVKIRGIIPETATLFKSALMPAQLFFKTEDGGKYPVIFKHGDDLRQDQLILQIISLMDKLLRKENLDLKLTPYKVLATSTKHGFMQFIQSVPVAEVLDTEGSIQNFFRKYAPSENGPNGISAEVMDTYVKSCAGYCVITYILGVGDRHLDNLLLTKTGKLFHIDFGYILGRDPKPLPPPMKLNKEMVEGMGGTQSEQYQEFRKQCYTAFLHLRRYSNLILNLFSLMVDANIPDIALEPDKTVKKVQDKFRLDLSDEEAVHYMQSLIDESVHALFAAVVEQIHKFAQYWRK

As for `NC(=O)C1CN2CCN1CC(=O)NCCCNc1ccc(cn1)-c1ccnc(n1)Nc1cccc(c1)C2` (stereo not drawn) [Compound 126], the remaining activity at 1 µM in assay [1] amounted to 4.95%. For the same compound, the IC50 was 7.59e-08 M in assay [1], 1.74e-07 M in assay [2] and more than 3.02e-05 M in assay [3].
In the same order, the values of `CN1CCCNc2ccc(cn2)-c2ccnc(n2)Nc2cccc(c2)CN2CCN(CC1=O)C(=O)C2` [Compound 127] are 19.2%, 3.55e-07 M, 3.72e-06 M and more than 3.02e-05 M.
Regarding `CN1CCCN(C)c2ccc(cn2)-c2ccnc(n2)Nc2cccc(c2)CN2CCNC(CC1=O)C2` (stereo not drawn) [Compound 128], the remaining activity at 1 µM in assay [1] is 5.81%. Also, the values for the IC50 in assay [1], in assay [2] and in assay [3] were 1.02e-07 M, 1.82e-06 M and 2.63e-05 M, respectively.
With `CN1CCCN(C)c2ccc(cn2)-c2ccnc(n2)Nc2cccc(c2)CN2CCN(C)C(CC1=O)C2` (stereo not drawn) [Compound 129], the remaining activity at 1 µM in assay [1] was 9.26%. Besides, the IC50 in assay [1] was 4.68e-07 M; in assay [2] it was 9.55e-07 M; in assay [3], 9.33e-06 M.
For `O=C1NCCCNc2ccc(cn2)-c2ccnc(n2)Nc2cccc(c2)CN2CCN1CC2` [Compound 130], in that order: 21%, 2.4e-07 M, more than 3.02e-05 M and more than 3.02e-05 M.
In the same order, the values of `CN1CCN(C)c2ccc(cn2)-c2ccnc(n2)Nc2ccc(O)c(c2)CN2CCN(CC2)CC1=O` [Compound 131] are 17.3%, 1.74e-07 M, 4.57e-07 M and 7.59e-06 M.
As for `O=C1CN2CCN(CC2)Cc2cccc(c2)Nc2nccc(n2)-c2ccc(nc2)CN(C(=O)C(F)(F)F)CCN1` [Compound 132], the remaining activity at 1 µM in assay [1] came out at 7.12%. The results for the IC50 in assay [1], in assay [2] and in assay [3] were 1.91e-07 M, 6.92e-08 M and 3.98e-06 M, respectively.
Take `CS(=O)(=O)N1CCNC(=O)CN2CCN(CC2)Cc2cccc(c2)Nc2nccc(n2)-c2ccc(nc2)C1` [Compound 133]: the remaining activity at 1 µM in assay [1] was 14.6%. The IC50 in assay [1] was 1.48e-07 M; in assay [2], 2.57e-06 M; in assay [3] it was more than 1e-05 M.
In the same order, the values of `NS(=O)(=O)N1CCNC(=O)CN2CCN(CC2)Cc2cccc(c2)Nc2nccc(n2)-c2ccc(nc2)C1` [Compound 134] are 4.78%, 6.46e-08 M, 1.29e-06 M and more than 1e-05 M.
